Reference: article PMC12053052, “Comprehensive physicochemical, biophysical, and in vitro characterization of lung surfactant SP-A peptidomimetics” (Rsc Pharmaceutics, 2025)
Where “and” joins values, the source holds several entries; their conditions need not be identical. Equal entries are not always repeated. Entries after “also recorded” stand apart in the source; their conditions may differ. No end group written: not given here.

Assays:
[1] = not given; remark: listed apart in the source
[2] = Octanol/water partition coefficient; type: physicochemical; conditions: shake-flask 1-octanol/water 50:50 v/v, 3 mg peptide in 3 mL, 37 °C, 24 h shaking + 24 h separation, HPLC-UV 220 nm, mean ± SD, N = 3
Experimental: Using similar conditions reported earlier,[14] octanol/water partition coefficient (P) measurements were conducted. A mass of 3 mg of peptide powder was added to 3 mL of 1-octanol (1.5 mL) and water (1.5 mL) to create a 50 : 50 v/v octanol : water ratio in a glass vial and allowed to shake in temperature-controlled water bath at 37 °C. After 24 hours, the shaker was stopped and the vial was undisturbed for 24 hours to allow the solvents to separate. An aliquot (20 μL) of water phase and octanol phase was injected into HPLC to quantify the peptide concentration in each phase.
High-performance liquid chromatography was used to quantify the peptides. The analysis was performed with a Shimadzu LC-2010AHT HPLC system (Kyoto, Japan), with autosampler fitted to a 20 μL sampling loop and dual wavelength UV-Vis detector and reverse phase C18 Phenomenex Prodigy™column (Torrance, CA) with 250 × 4.6 mm, 5 μm particle size. The mobile phase consisted of (A) 0.065% TFA in water and (B) 0.05% TFA in ACN at a flow rate of 1.0 mL min^−1. Analysis was performed using the following gradient elution method: 100% A to 100% B in 15 minutes, maintained at 100% B until 17.5 minutes. The percentage of A reached 100% in 19.5 minutes and maintained until 25 minutes. The column was maintained at 25 °C. The injection volume was 20 μL. The UV detector was set at 220 nm wavelength. […]

[3] = In vitro solubility in pure solvents; type: physicochemical; conditions: excess solid, rotated 24 h at ambient room temperature, 0.2 μm filtered, HPLC-UV 220 nm, mean ± SD, N = 3; for solubility thermodynamic at 24 h: PBS, pH 7.4, aqueous buffer, thermodynamic from solid
Experimental: In vitro solubility measurements were conducted using conditions earlier reported.[13] Excess of peptide powder was added to known volume of pure solvent in a glass vial. The vial was allowed to rotate at ambient room temperature for 24 hours.[13] The test solution was filtered using 0.2 μm PTFE or PVDF membrane filters for organic and aqueous solvents respectively. The filtered solution was chemically analyzed by HPLC using conditions described in the HPLC section below.
High-performance liquid chromatography was used to quantify the peptides. The analysis was performed with a Shimadzu LC-2010AHT HPLC system (Kyoto, Japan), with autosampler fitted to a 20 μL sampling loop and dual wavelength UV-Vis detector and reverse phase C18 Phenomenex Prodigy™column (Torrance, CA) with 250 × 4.6 mm, 5 μm particle size. The mobile phase consisted of (A) 0.065% TFA in water and (B) 0.05% TFA in ACN at a flow rate of 1.0 mL min^−1. Analysis was performed using the following gradient elution method: 100% A to 100% B in 15 minutes, maintained at 100% B until 17.5 minutes. The percentage of A reached 100% in 19.5 minutes and maintained until 25 minutes. The column was maintained at 25 °C. The injection volume was 20 μL. The UV detector was set at 220 nm wavelength. The solvents used to dissolve 10-AA and 20-AA peptide analysis were PBS and pure water, respectively.

[4] = system: NCI-H441 (human papillary lung adenocarcinoma cells); test: In vitro cell viability, resazurin assay; type: cell-based; conditions: 0.1–1000 μM peptide, 72 h, relative to growth medium control, n = 6, ANOVA/Tukey p < 0.05
From the text: (§1) The cell viability of three different human pulmonary cell lines from different lung areas representing the conducting airways, the mid-lung and deep lung respiratory regions of the small airways. They are A549 (human alveolar epithelial lung cells), H358 (human bronchioalveolar epithelial cells) and NCI-H441 (human papillary lung adenocarcinoma cells), were studied using the Resazurin assay. Pulmonary cell lines A549 (ATCC® CCL-185™), H358 (ATCC® CRL-5807™) and NCI-H441 (ATCC® HTB-174™) were purchased from the American Type Culture Collection ATCC® (Manassas, VA). As previously reported,[16] A549 and H358 were grown in Dulbecco's modified eagle's medium (DMEM) Advanced 1× supplemented with 10% v/v fetal bovine serum (FBS), Pen-Strep (100 U mL^−1, 100 μg mL^−1), Fungizone® (0.5 μg mL^−1 amphotericin B, 0.41 μg mL^−1 sodium deoxycholate) and 2 mM L-glutamine obtained from Gibco® by Life Technologies (Thermo Fisher Scientific Inc., Waltham, MA). H441 cell line was grown in RPMI 1640 with L-glutamine Gibco® by Life Technologies (Thermo Fisher Scientific Inc., Waltham, MA).
(§2) The assay was conducted using similar previously reported conditions.[16] Briefly, in Nunc™ MicroWell™ 96-well optical-bottom plates with polymer base (ThermoScientific Waltham, MA) each cell line was seeded at a concentration of 5000 cells in 100 μL per well (six wells, n = 6) and allowed to attach for 48 hours. The cells were treated with 100 μL volume of different concentrations (0.1–1000 μM) of the peptides dissolved in the respective media. After 72 hours, the plate was treated with 20 μL of 10 μM resazurin solution. After 3–4 hours, the fluorescence intensity was read at 514 nm (excitation) and 590 nm (emission) wavelengths using the Synergy H1 Multi-Mode Reader (BioTek Instruments, Inc., Winooski, Vermont). The corresponding growth media was used as control for each cell line. Relative viability was calculated as a ratio of fluorescence intensity of the sample to the control. [drawing 1]

[5] = system: A549 (human alveolar epithelial lung cells); test: In vitro cell viability, resazurin assay; type: cell-based; conditions: 0.1–1000 μM peptide, 72 h, relative to growth medium control, n = 6, ANOVA/Tukey p < 0.05
From the text: as §1, §2

[6] = system: H358 (human bronchioalveolar epithelial cells); test: In vitro cell viability, resazurin assay; type: cell-based; conditions: 0.1–1000 μM peptide, 72 h, relative to growth medium control, n = 6, ANOVA/Tukey p < 0.05
From the text: as §1, §2

Row | Substance | Enthalpy (ΔH) of melting [J/g] | Solubility in MilliQ water ([3]; thermodynamic) [µg/mL] | Solubility in absolute ethanol ([3]; thermodynamic) [µg/mL] | Solubility in methanol ([3]; thermodynamic) [µg/mL] | solubility thermodynamic at 24 h [3] [µg/mL] | other results
1 | H-KEQCVEMYTD-OH | 3.08 | – | – | – | – | Melting temperature (Tm), characteristic endothermic peak [1]: 171 °C and 168 °C
2 | H-PAGRGKEQCVEMYTDGQWND-OH | 1.08 | – | – | – | – | –
3 | KEQCVEMYTD [SP-A 10-AA AC] | – | 420 ± 40 | 40 ± 10 | 10 ± 0.3 | – | logP ([2]; read-out: Log P (octanol/water partition coefficient)): -1.07 ± 0.2; Solubility in PBS (pH 7.4) ([3]; thermodynamic): 1.16 ± 0.01 mg mL^−1
4 | KEQCVEMYTD [SP-A 10-AA PS] | – | 12200 ± 50 | 2060 ± 30 | 4250 ± 10 | 1810 ± 20 | Log P (octanol/water partition coefficient) [2]: −1.79
5 | PAGRGKEQCVEMYTDGQWND [SP-A 20-AA AC] | – | – | 20 ± 20 | 20 ± 5 | – | Relative cell viability, H441 [4]: reduction in viability at higher concentrations; also recorded: significantly reduced cell viability at concentrations above 100 μM; Relative cell viability, A549 [5]: significantly reduced cell viability at concentrations above 100 μM
6 | PAGRGKEQCVEMYTDGQWND [SP-A 20-AA PS] | – | – | 110 ± 50 | 1450 ± 20 | 470 ± 4 | Relative cell viability, H358 [6]: decreased viability at higher concentrations; also recorded: statistically significant decrease in viability only with 20-AA PS at 1000 μM
